# From patent US8415357B2 (Canbas Co., Ltd., priority 2007, dated 2013)
# Test system: Jurkat cells
# Test: Adaptation to G2 cell cycle arrest (G1 increment) in X-ray pre-arrested Jurkat cells, flow cytometry
# Type: cell-based, human
# Details: Homo sapiens, Jurkat, 24 h, Table 1; concentration causing half-maximal increase of % cells in G1 phase (G1 increment); Jurkat pre-arrested by 10 Gy X-ray, 24 hours with compound
# In short: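 Jurkat cells were G2-arrested by 10 Gy X-ray irradiation and held 24 h in 10% FCS/RPMI1640 at 37 °C. They were then exposed to compounds for a further 24 h. Propidium iodide staining and flow cytometry gave the %G1 cells, and IC50 (μM) is the concentration giving a half-maximal G1 increment.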
row,Compound,IC50 [nM]
1,CC1=C(C)C(=O)N(Nc2cc(Cl)cc(Cl)c2)C1=O [Compound S00456],2500
2,CC1=C(C)C(=O)N(Nc2cccc(C(C)(C)C)c2)C1=O [Compound S00627],2000
3,CC1=C(C)C(=O)N(Nc2ccc3cc(Cl)ccc3n2)C1=O [Compound S00622],5000
4,CC1=C(C)C(=O)N(Nc2cc(C(F)(F)F)cc(C(F)(F)F)c2)C1=O [Compound S00474],2500
5,CC1=C(c2ccccc2)C(=O)N(Nc2ccc(C(F)(F)F)c(Cl)n2)C1=O [Compound S00257],10000
6,CC1=C(C)C(=O)N(Cc2ccc(C(F)(F)F)c(F)c2)C1=O [Compound S00412],10000
7,"O=C1C2=C(CCCC2)C(=O)N1Nc1ccc(C(F)(F)F)c(Cl)n1 [Compound S00186, 2-{[6-chloro-5-(trifluoromethyl)-2-pyridyl]amino}-4,5,6,7-tetrahydroisoindole-1,3-dione]",630
8,CC1=C(C)C(=O)N(Nc2ccc(C(F)(F)F)cn2)C1=O [Compound S00073],2500
9,O=C1C(Cl)=C(Cl)C(=O)N1Cc1ccc(C(F)(F)F)cc1 [Compound S00409],20000
10,CC1=C(C)C(=O)N(Cc2ccc(C(F)(F)F)cc2)C1=O [Compound S00088],10000
11,CC1=C(C)C(=O)N(Nc2ccc(-c3ccccc3)cc2)C1=O [Compound S00515],20000
12,CC1=C(C)C(=O)N(Cc2ccc(C(F)(F)F)cc2Cl)C1=O [Compound S00408],10000

# Same assay, conditions: Homo sapiens, Jurkat, 24 h, Table 2; concentration causing half-maximal increase of % cells in G1 phase (G1 increment); Jurkat pre-arrested by 10 Gy X-ray, 24 hours with compound
row,Compound,IC50 [nM]
1,"CC(=O)N(c1ccc(C(F)(F)F)c(Cl)n1)N1C(=O)C(C)=C(CO)C1=O [Compound S01820, N-[6-chloro-5-(trifluoromethyl)(2-pyridyl)]-N-[4-(hydroxymethyl)-3-methyl-2,5-dioxoazolinyl]acetamide]",625
2,"CC1=C(C)C(=O)N(Nc2ccc(C(F)(F)F)c(-c3ccccc3)n2)C1=O [Compound S01266, 3,4-dimethyl-1-{[6-phenyl-5-(trifluoromethyl)(2-pyridyl)]amino}azoline-2,5-dione]",200
3,"CC1=C(C)C(=O)N(Nc2ccc(C(F)(F)F)c(-c3ccc(C)cc3)n2)C1=O [Compound S01393, 3,4-dimethyl-1-{[6-(4-methylphenyl)-5-(trifluoromethyl)(2-pyridyl)]amino}azoline-2,5-dione]",625
4,"CC1=C(C)C(=O)N(Nc2nc(Cl)c(C(F)(F)F)cc2Br)C1=O [Compound S01981, 1-{[3-bromo-6-chloro-5-(trifluoromethyl)(2-pyridyl)]amino}-3,4-dimethylazoline-2,5-dione]",78
5,"CC1=C(C)C(=O)N(Nc2cc(Cl)c3ccc4ccccc4c3n2)C1=O [Compound S01207, 1-[(4-chlorobenzo[h]quinolin-2-yl)amino]-3,4-dimethylazoline-2,5-dione]",625
6,"COCC1=C(C)C(=O)N(Nc2ccc(C(F)(F)F)c(Cl)n2)C1=O [Compound S01599, 1-{[6-chloro-5-(trifluoromethyl)(2-pyridyl)]amino}-3-(methoxymethyl)-4-methylazoline-2,5-dione]",120
7,"CC1=C(C)C(=O)N(Nc2cc(C(F)(F)F)c3ccccc3n2)C1=O [Compound S00873, 3,4-dimethyl-1-{[4-(trifluoromethyl)(2-quinolyl)]amino}azoline-2,5-dione]",300
8,"CCC1=C(C)C(=O)N(Nc2ccc(C(F)(F)F)c(Cl)n2)C1=O [Compound S01553, 1-{[6-chloro-5-(trifluoromethyl)(2-pyridyl)]amino}-3-ethyl-4-methylazoline-2,5-dione]",450
9,"CNC(=O)CCC1=C(C)C(=O)N(Nc2ccc(C(F)(F)F)c(Cl)n2)C1=O [Compound S01883, 3-(1-{[6-chloro-5-(trifluoromethyl)(2-pyridyl)]amino}-4-methyl-2,5-dioxoazolin-3-yl)-N-methylpropanamide]",234
10,"CC1=C(C)C(=O)N(Nc2cc(Cl)c3cccc(Br)c3n2)C1=O [Compound S01247, 1-[(8-bromo-4-chloro(2-quinolyl))amino]-3,4-dimethylazoline-2,5-dione]",78
11,"CC1=C(C)C(=O)N(Nc2ccc(C(F)(F)F)c(C#N)n2)C1=O [Compound S01475, 6-[(3,4-dimethyl-2,5-dioxoazolinyl)amino]-3-(trifluoromethyl)pyridine-2-carbonitrile]",500
12,"CC1=C(C)C(=O)N(Nc2ccc(C(F)(F)F)c(CC(C)C)n2)C1=O [Compound S01457, 3,4-dimethyl-1-{[6-(2-methylpropyl)-5-(trifluoromethyl)(2-pyridyl)]amino}azoline-2,5-dione]",300
13,"CC1=C(C)C(=O)N(Nc2cc(Cl)c3cccc(C)c3n2)C1=O [Compound S00871, 1-[(4-chloro-8-methyl(2-quinolyl))amino]-3,4-dimethylazoline-2,5-dione]",625
14,"O=C1C2=C(CCCC2)C(=O)N1Nc1ccc(C(F)(F)F)c(Cl)n1 [Compound S00186, 2-{[6-chloro-5-(trifluoromethyl)-2-pyridyl]amino}-4,5,6,7-tetrahydroisoindole-1,3-dione]",625
15,"CC1=C(C)C(=O)N(Nc2ccc(C(F)(F)F)c(Br)n2)C1=O [Compound S00994, 1-{[6-bromo-5-(trifluoromethyl)(2-pyridyl)]amino}-3,4-dimethylazoline-2,5-dione]",200
16,"CC1=C(C)C(=O)N(Nc2cc(Cl)c(Cl)c(Cl)c2)C1=O [Compound S00832, 3,4-dimethyl-1-[(3,4,5-trichlorophenyl)amino]azoline-2,5-dione]",300
17,"CC1=C(C)C(=O)N(Nc2cc(C(F)(F)F)cc(Cl)n2)C1=O [Compound S01737, 1-{[6-chloro-4-(trifluoromethyl)(2-pyridyl)]amino}-3,4-dimethylazoline-2,5-dione]",312
18,"CCOC(=O)C(CC1=C(C)C(=O)N(Nc2ccc(C(F)(F)F)c(Cl)n2)C1=O)C(=O)OCC [Compound S01712, Diethyl 2-[(1-{[6-chloro-5-(trifluoromethyl)(2-pyridyl)]amino}-4-methyl-2,5-dioxoazolin-3-yl)methyl]propane-1,3-dioate]",156
19,"CON(C)C(=O)CCC1=C(C)C(=O)N(Nc2ccc(C(F)(F)F)c(Cl)n2)C1=O [Compound S01796, 3-(1-{[6-chloro-5-(trifluoromethyl)(2-pyridyl)]amino}-4-methyl-2,5-dioxoazolin-3-yl)-N-methoxy-N-methylpropanamide]",78

# Same assay, conditions: Homo sapiens, Jurkat, 24 h, Table 3; concentration causing half-maximal increase of % cells in G1 phase (G1 increment); Jurkat pre-arrested by 10 Gy X-ray, 24 hours with compound
row,Compound,IC50 [nM]
1,"CC1=C(COCCC(C)(C)C)C(=O)N(Nc2ccc(C(F)(F)F)c(Cl)n2)C1=O [Compound S03747, 3-[(3,3-dimethylbutoxy)methyl]-1-{[6-chloro-5-(trifluoromethyl) (2-pyridyl)]amino}-4-methylazoline-2,5-dione]",< 19
2,"CC1=C(CCOCCC(C)C)C(=O)N(Nc2ccc(C(F)(F)F)c(Cl)n2)C1=O [Compound S03956, 1-{[6-chloro-5-(trifluoromethyl)(2-pyridyl)]amino}-4-methyl-3-[2-(3-methylbutoxy)ethyl]azoline-2,5-dione]",156
3,"CCCCC1=C(C)C(=O)N(Nc2ccc(C(F)(F)F)c(Cl)n2)C1=O [Compound S03448, 3-butyl-1-{[6-chloro-5-(trifluoromethyl) (2-pyridyl)]amino}-4-methylazoline-2,5-dione]",156
4,"CC1=C(COC(C)CC(C)C)C(=O)N(Nc2ccc(C(F)(F)F)c(Cl)n2)C1=O (stereo not shown) [Compound S03964, 4-[(1,3-dimethylbutoxy)methyl]-1-{[6-chloro-5-(trifluoromethyl) (2-pyridyl)]amino}-3-methylazoline-2,5-dione]",40
5,"CCC(O)CCC1=C(C)C(=O)N(Nc2ccc(C(F)(F)F)c(Cl)n2)C1=O (stereo not shown) [Compound S03745, 1-{[6-chloro-5-(trifluoromethyl)(2-pyridyl)]amino}-4-(3-hydroxypentyl)-3-methylazoline-2,5-dione]",60
6,"CC1=C(COCC(C)(C)C)C(=O)N(Nc2ccc(C(F)(F)F)c(Cl)n2)C1=O [Compound S03962, 3-[(2,2-dimethylpropoxy)methyl]-1-{[6-chloro-5-(trifluoromethyl) (2-pyridyl)]amino}-4-methylazoline-2,5-dione]",< 19
7,"CCCOCCC1=C(C)C(=O)N(Nc2ccc(C(F)(F)F)c(Cl)n2)C1=O [Compound S04034, 1-{[6-chloro-5-(trifluoromethyl)(2-pyridyl)]amino}-3-methyl-4-(2-propoxyethyl)azoline-2,5-dione]",40
8,"CCCC(O)CCC1=C(C)C(=O)N(Nc2ccc(C(F)(F)F)c(Cl)n2)C1=O (stereo not shown) [Compound S03552, 1-{[6-chloro-5-(trifluoromethyl)(2-pyridyl)]amino}-4-(3-hydroxyhexyl)-3-methylazoline-2,5-dione]",60
9,"CC1=C(COCC(C)C)C(=O)N(Nc2ccc(C(F)(F)F)c(Cl)n2)C1=O [Compound S03963, 1-{[6-chloro-5-(trifluoromethyl)(2-pyridyl)]amino}-4-methyl-3-[(2-methylpropoxy)methyl]azoline-2,5-dione]",< 19
10,"CC1=C(CCOCC(C)C)C(=O)N(Nc2ccc(C(F)(F)F)c(Cl)n2)C1=O [Compound S03955, 1-{[6-chloro-5-(trifluoromethyl)(2-pyridyl)]amino}-4-methyl-3-[2-(2-methylpropoxy)ethyl]azoline-2,5-dione]",60

# Same assay, conditions: Table 2; concentration causing half-maximal increase of % cells in G1 phase (G1 increment); Jurkat pre-arrested by 10 Gy X-ray, 24 hours with compound
row,Compound,IC50 [nM]
1,"CC1=C(C)C(=O)N(Nc2cc(CN3CCN(C(=O)OC(C)(C)C)CC3)c3ccc(Br)cc3n2)C1=O [Compound S01589, tert-butyl 4-({2-[(3,4-dimethyl-2,5-dioxoazolinyl)amino]-7-bromo-4-quinolyl}methyl)piperazinecarboxylate]",78

# Test system: ARH-77 cells
# Test: Survival of SCID mice with xenografts of ARH-77 cells
# Details: administered intraperitoneally or orally to SCID mice with ARH-77 xenografts
# Procedure: For the experiment shown in FIG. 6, mice received 1.9×10^6 ARH-77 cells by intraperitoneal transplantation. […] Mice treated with dexamethasone (“Dexa”) received an intraperitoneal injection of 2 mg/kg dexamethasone. Vehicle treated control animals received intraperitoneal vehicle injection. Each injection was performed on day 1, day 2 and day 3 after transplantation of ARH-77 cells.
# For the experiment shown in FIG. 7, mice received 0.8×10^6 ARH-77 cells by intraperitoneal transplantation.
# For the experiment shown in FIG. 8, mice received 4.1×10^6 ARH-77 cells by intraperitoneal transplantation.
row,Compound,cytotoxicity against normal cells (the mouse graft host)
1,"CC1=C(COCCC(C)(C)C)C(=O)N(Nc2ccc(C(F)(F)F)c(Cl)n2)C1=O [Compound S03747, 3-[(3,3-dimethylbutoxy)methyl]-1-{[6-chloro-5-(trifluoromethyl) (2-pyridyl)]amino}-4-methylazoline-2,5-dione]",no detectable cytotoxicity against normal cells
